The text below walks through data of US20240228547A1, “POLYPEPTIDE FOR RESISTING NOVEL CORONAVIRUS AND APPLICATION THEREOF” (INSTITUTE OF MICROBIOLOGY, CHINESE ACADEMY OF SCIENCES, priority 2021, published 2024).

Experiment [1] concerns pseudovirus of SARS-CoV-2 variant Gamma (P.1). Conditions: P.1 (Gamma) pseudovirus; for IC50: read-out: IC50, inhibitory effect on pseudovirus, Hela hACE2 cells.
The test system of experiment [2] is pseudovirus of SARS-CoV-2 variant Alpha (B.1.1.7). Conditions: B.1.1.7 (Alpha) pseudovirus; for IC50: read-out: IC50, inhibitory effect on pseudovirus, Hela hACE2 cells.
For experiment [3], the system named is pseudovirus of SARS-CoV-2 variant Delta (B.1.617.2). Conditions: B.1.617.2 (Delta) pseudovirus; for IC50: read-out: IC50, inhibitory effect on pseudovirus, Hela hACE2 cells.
In experiment [4] the test system is pseudovirus of SARS-CoV-2 variant Kappa (B.1.617.1). Conditions: for Increase multiple (fold increase in the inhibitory effect compared to the polypeptide P3) / IC50: B.1.617.1 (Kappa) pseudovirus; for IC50: read-out: IC50, inhibitory effect on pseudovirus, Hela hACE2 cells.
The test system of experiment [5] is pseudovirus of SARS-CoV-2 variant Beta (B.1.351). Conditions: B.1.351 (Beta) pseudovirus; for IC50: read-out: IC50, inhibitory effect on pseudovirus, Hela hACE2 cells.
The test system of experiment [6] is pseudovirus of SARS-CoV-2 variant D614G. Conditions: for IC50: pseudovirus of variant D614G.
Experiment [7] deals with SARS-COV-2 original strain and its various variants. The class given is cell-based.

Take `CC[C@H](C)[C@H](N)C(=O)N[C@@H](CO)C(=O)NCC(=O)N[C@H](C(=O)N[C@@H](CC(N)=O)C(=O)N[C@@H](C)C(=O)N[C@@H](CO)C(=O)N[C@H](C(=O)N[C@H](C(=O)N[C@@H](CC(N)=O)C(=O)N[C@H](C(=O)N[C@@H](CCC(N)=O)C(=O)N[C@@H](CCCCN)C(=O)N[C@@H](CCC(=O)O)C(=O)N[C@H](C(=O)N[C@@H](CC(=O)O)C(=O)N[C@@H](CCCNC(=N)N)C(=O)N[C@@H](CC(C)C)C(=O)N[C@@H](CC(N)=O)C(=O)N[C@@H](CCC(=O)O)C(=O)N[C@H](C(=O)N[C@@H](C)C(=O)N[C@@H](CCCCN)C(=O)N[C@@H](CCC(=O)O)C(=O)N[C@@H](CC(C)C)C(=O)N[C@@H](CC(N)=O)C(=O)N[C@@H](CCC(=O)O)C(=O)N[C@@H](CO)C(=O)N[C@@H](CC(C)C)C(=O)N[C@H](C(=O)N[C@@H](CC(=O)O)C(=O)N[C@@H](CC(C)C)C(=O)N[C@@H](CCC(N)=O)C(=O)N[C@@H](CCC(=O)O)C(=O)N[C@@H](CC(C)C)C(=O)O)[C@@H](C)CC)C(C)C)[C@@H](C)CC)[C@@H](C)CC)C(C)C)C(C)C)[C@@H](C)CC` [Polypeptide P3-5]: the “Increase multiple (fold increase in the inhibitory effect compared to the polypeptide P3)” value is on record as 1.3 in experiment [1]; 0.5 in experiment [2]; 0.4 in experiment [3]; 0.7 in experiment [4]; 0.6 in experiment [5]; 0.5 in experiment [6]. The IC50 in experiment [1] turned out to be 630 nM; in experiment [2] it was 1430 nM; in experiment [3], 1820 nM; in experiment [4], 1060 nM; in experiment [5], 1240 nM; in experiment [6] it was 1470 nM. The “inhibitory effect on the Kappa variant strain compared with P3 (in words)” value in experiment [4] (Kappa variant strain) is listed as “slightly higher than that of P3”. Moreover, the “inhibitory effect compared with the polypeptide P3 (in words)” value in experiment [7] is recorded as “decreased slightly”.

Regarding `CC[C@H](C)[C@H](N)C(=O)N[C@@H](CO)C(=O)NCC(=O)N[C@H](C(=O)N[C@@H](CC(N)=O)C(=O)N[C@@H](C)C(=O)N[C@@H](CO)C(=O)N[C@H](C(=O)N[C@H](C(=O)N[C@@H](CC(N)=O)C(=O)N[C@H](C(=O)N[C@@H](CCCCN)C(=O)N[C@@H](CCC(=O)O)C(=O)N[C@@H](CCC(=O)O)C(=O)N[C@H](C(=O)N[C@@H](CC(=O)O)C(=O)N[C@@H](CCCNC(=N)N)C(=O)N[C@@H](CC(C)C)C(=O)N[C@@H](CC(N)=O)C(=O)N[C@@H](CCC(=O)O)C(=O)N[C@H](C(=O)N[C@@H](C)C(=O)N[C@@H](CCCCN)C(=O)N[C@@H](CC(N)=O)C(=O)N[C@@H](CC(C)C)C(=O)N[C@@H](CC(N)=O)C(=O)N[C@@H](CCC(=O)O)C(=O)N[C@@H](CO)C(=O)N[C@@H](CC(C)C)C(=O)N[C@H](C(=O)N[C@@H](CC(=O)O)C(=O)N[C@@H](CC(C)C)C(=O)N[C@@H](CCC(N)=O)C(=O)N[C@@H](CCC(=O)O)C(=O)N[C@@H](CC(C)C)C(=O)O)[C@@H](C)CC)C(C)C)[C@@H](C)CC)[C@@H](C)CC)C(C)C)C(C)C)[C@@H](C)CC` [Polypeptide P3-4], the “Increase multiple (fold increase in the inhibitory effect compared to the polypeptide P3)” value is on record as 3.6 in experiment [1]; 1.3 in experiment [2]; 1.4 in experiment [3]; 1.6 in experiment [4]; 4.0 in experiment [5]; 2.6 in experiment [6]. Besides, the 50% inhibitory concentration (IC50) in experiment [1] turned out to be 220 nM; in experiment [2] it was 590 nM; in experiment [3], 550 nM; in experiment [4], 480 nM; in experiment [5] it was 200 nM; in experiment [6], 300 nM. In addition, the “inhibitory effect compared with the polypeptide P3 (in words)” value in experiment [7] is reported as “improved to varying degrees”.

Take `CC[C@H](C)[C@H](NC(=O)CNC(=O)[C@H](CO)NC(=O)[C@@H](NC(=O)[C@H](CC(=O)O)NC(=O)CNC(=O)[C@H](Cc1ccccc1)NC(=O)[C@H](CCCCN)NC(=O)[C@@H](N)C(C)C)[C@@H](C)CC)C(=O)N[C@@H](CC(N)=O)C(=O)N[C@@H](C)C(=O)N[C@@H](CO)C(=O)N[C@H](C(=O)N[C@H](C(=O)N[C@@H](CC(N)=O)C(=O)N[C@H](C(=O)N[C@@H](CCCCN)C(=O)N[C@@H](CCC(=O)O)C(=O)N[C@@H](CCC(=O)O)C(=O)N[C@H](C(=O)N[C@@H](CC(=O)O)C(=O)N[C@@H](CCCNC(=N)N)C(=O)N[C@@H](CC(C)C)C(=O)N[C@@H](Cc1ccc(O)cc1)C(=O)N[C@@H](CCC(=O)O)C(=O)N[C@H](C(=O)N[C@H](C(=O)N[C@@H](CCCCN)C(=O)N[C@@H](CC(N)=O)C(=O)N[C@@H](CC(C)C)C(=O)N[C@@H](CC(N)=O)C(=O)N[C@@H](CCC(=O)O)C(=O)N[C@@H](CO)C(=O)N[C@@H](CC(C)C)C(=O)N[C@H](C(=O)N[C@@H](CC(=O)O)C(=O)N[C@@H](CC(C)C)C(=O)N[C@@H](CCC(N)=O)C(=O)N[C@@H](CCC(=O)O)C(=O)N[C@@H](CC(C)C)C(=O)O)[C@@H](C)CC)C(C)C)C(C)C)[C@@H](C)CC)[C@@H](C)CC)C(C)C)C(C)C` [Polypeptide P3-3]: the “Increase multiple (fold increase in the inhibitory effect compared to the polypeptide P3)” value was 7.2 in experiment [1]; 2.1 in experiment [2]; 2.4 in experiment [3]; 1.8 in experiment [4]; 7.5 in experiment [5]; 5.0 in experiment [6]. Moreover, the IC50 in experiment [1] was 110 nM; in experiment [2], 370 nM; in experiment [3], 320 nM; in experiment [4], 430 nM; in experiment [5], 100 nM; in experiment [6], 160 nM. Also, the “inhibitory effect compared with the polypeptide P3 (in words)” value in experiment [7] is recorded as “most obviously improved”.
